Measurements: patent US20100081632A1, “High-content and high throughput assays for identification of lipid-regulating pathways, and novel therapeutic agents for lipid disorders” (Odyssey Thera, Inc., priority 2008, published 2010)

How the values were obtained:
PCSK9/LDLR complex = assay: PCSK9/LDLR protein complementation assay (PCA) in transfected HEK293 cells; assay type: cell-based, human
Procedure: In one of the embodiments of the invention, the cell-based assay consists of transfected cDNAs encoding full-length PCSK9 and LDL receptor, each sequence linked in-frame to rationally designed fragments of a variant of green fluorescent protein. These two plasmid constructs were co-expressed in human HEK cells plated in 384-well poly-lysine coated plates. After 24-48 hours of incubation, drugs (or vehicle controls) were added to the media, and the existence and localization of PCSK9/LDL receptor complexes was quantified on an Opera automated confocal fluorescence microscopy platform (Perkin Elmer). Images were subjected to automated image analysis, and results quantified and subjected to statistical analysis.
HEK 293T cells were seeded in normal growth media containing DMEM and 10% FBS at 1.5×10^4 in PDL-coated 96-well plates 24 hours prior to transfection. Cells were transfected with 50 ng of each construct DNA per well with Fugene 6, using conditions recommended by the manufacturer. Cells were allowed to express the construct pairs for 24- or 48 h, then the cells were simultaneously fixed and stained with either a 1:300 dilution of Hoescht 33342 (Molecular Probes, Eugene, Oreg.) or a 1:1000 dilution of Draq5 (Biostatus, Shepshed, Leicestershire, U.K.) in 4% formaldehyde for 15 minutes at room temperature. The cells were washed to remove fixative, and overlaid with a small volume of Hank's Buffered Salt Solution. Images were acquired on a Discovery-1 (Molecular Devices) epifluorescence microscope using the 20× objective, and DAPI and FITC filter sets. (with excitation at 350 and 488 nm wave lengths) or on an Opera (Perkin Elmer) confocal microscope using the 20× water objective with the following excitation and emission settings: Ex 488 nm/Em 535 nm (YFP) and Ex 635 nm/Em 640 nm (Draq5).
To test for in vitro PCSK9 function and activity, we developed a protein complementation assay (PCA) with PCSK9-IFP2 and the LDL-IFP1 receptor (PCSK9/LDLR). Expression of wild type PCSK9-IFP2 in transfected HEK293 cells was confirmed by Western blot using an antibody against YFP (FIG. 2). Cotranfection of HEK cells with increasing ratios of PCSK9-IFP2 and LDLR-IFP1 DNA constructs results in increased PCA signal (FIG. 3) but not when each construct is expressed alone. The intracellular localization of the wild-type PCSK9-IFP2/LDLR-IFP1 PCA interaction is similar to the known localization of wild type PCSK9 in the endoplasmic reticulum (ER) and post-ER compartments in various cell types (20, 21). The PCA signal for the PCSK9-IFP2/LDLR-IFP1 pair appears to be localized to multiple intracellular trafficking sites including the ER, endosomes and the cell surface.
In order to test the viability of using the PCSK9-IFP2/LDLR-IFP1 PCA as a drug discovery tool, we tested a drug plate containing 50 known drugs at 3 doses in the assay (Table 10) as well as several protein kinase inhibitors (representative compounds are depicted in Table 11). […] We observed the following effects of known compounds on the PCSK9/LDLR complex:
A collection of small molecular weight compounds was screened. […] To expand on this observation, we characterized the effects of a larger panel of kinase inhibitors on the PCSK9/LDLr complex. 47 compounds representing a broad range of known receptor tyrosine and serine-threonine kinase inhibitors were assessed (table 2). A subset was identified that had inhibitory effects on the PCSK9/LDLr complex (degree of assay inhibition relative to control is indicated by “% control”, Table 2).

HepG2 cells = assay: LDL uptake in HepG2 cells (human LDL conjugated to DyLight 549); assay type: cell-based; settings: for effect on LDL uptake (in words): HepG2, 10 μM; for x-fold increase (hepatic LDL uptake): HepG2; for % Control (Table 5, titled LDL uptake in Hepg2 cells): values repeat Table 2
Excerpt: The assay uses human LDL conjugated to DyLight™ 549 as a fluorescent probe for detection of LDL uptake into HepG2 cells.
We assessED whether compounds that inhibit the PCSK9/LDLr assay would have activity on LDL uptake and metabolism in a relevant cell type. PCSK9 is thought to be a negative regulator of LDLr. Thus, we predicted that compounds inhibiting the PCSK9 PCA signal would increase LDL receptor expression and LDL uptake. An assay using human LDL conjugated to DyLight™ 549 as a fluorescent probe for detection of LDL uptake into cultured human hepatocytes. A separate assay, using an LDL receptor-specific polyclonal antibody and a DyLight™ 488-conjugated secondary antibody, was also performed to localize LDL receptors
Quantitation of the increased LDL uptake of these and other kinase inhibitors targeting Akt, mTOR, p38, GSK3 and VEGF is shown in Table 4.

Molecule: Cc1ccc(NC(=O)c2ccc(CN3CCN(C)CC3)cc2)cc1Nc1nccc(-c2cccnc2)n1 [Imatinib]
- effect on formation of PCSK9/LDLR complexes / PCA signal (in words) (PCSK9/LDLR complex): inhibit the formation of PCSK9/LDLR complexes
- % Control (PCSK9/LDLr PCA) (PCSK9/LDLR complex; dose 10 μM): 55%
- effect on LDL uptake (in words) (HepG2 cells): dramatic increase in LDL uptake
- x-fold increase (LDL uptake in Hepg2 cells) (HepG2 cells; dose 3 μM): 2.4 x-fold
- x-fold increase (LDL uptake in Hepg2 cells) (HepG2 cells; dose 10 μM): 5.4 x-fold
- x-fold increase (hepatic LDL uptake) (HepG2 cells; dose 10 µM): 5.4 x-fold
- % Control (Table 5, titled LDL uptake in Hepg2 cells) (HepG2 cells; dose 10 μM): 55%
- x-fold increase (hepatic LDL uptake) (HepG2 cells; dose 3 µM): 2.4 x-fold

Molecule: CCOc1cc2ncc(C#N)c(Nc3ccc(OCc4ccccn4)c(Cl)c3)c2cc1NC(=O)/C=C/CN(C)C [Neratinib]
- % Control (PCSK9/LDLr PCA) (PCSK9/LDLR complex; dose 1 μM): 64%
- % Control (PCSK9/LDLr PCA) (PCSK9/LDLR complex; dose 3 μM): 61%
- effect on LDL uptake (in words) (HepG2 cells): dramatic increase in LDL uptake
- x-fold increase (LDL uptake in Hepg2 cells) (HepG2 cells; dose 10 μM): 2.2 x-fold
- x-fold increase (hepatic LDL uptake) (HepG2 cells; dose 10 µM): 2.2 x-fold

Molecule: Cc1ccc([N+](=O)[O-])cc1S(=O)(=O)N(C)/N=C/c1cnc2ccc(Br)cn12 [PI 3-Kalpha Inhibitor VIII, N-((1E)-(6-Bromoimidazo[1,2-a]pyridin-3-yl)methylene)-Nprime-methyl-Ndoubleprime-(2-methyl-5-nitrobenzene)sulfonohydrazide]
- % Control (PCSK9/LDLr PCA) (PCSK9/LDLR complex; dose 1 μM): 44%
- % Control (PCSK9/LDLr PCA) (PCSK9/LDLR complex; dose 3 μM): 39%
- % Control (PCSK9/LDLr PCA) (PCSK9/LDLR complex; dose 10 μM): 29%
- % Control (Table 5, titled LDL uptake in Hepg2 cells) (HepG2 cells; dose 1 μM): 44%
- % Control (Table 5, titled LDL uptake in Hepg2 cells) (HepG2 cells; dose 3 μM): 39%

Molecule: CC(C)[C@H](CO)Nc1nc(Nc2cccc(Cl)c2)c2ncn(C(C)C)c2n1 [Purvalanol A]
- % Control (PCSK9/LDLr PCA) (PCSK9/LDLR complex; dose 15 μM): 52%
- % Control (Table 5, titled LDL uptake in Hepg2 cells) (HepG2 cells; dose 15 μM): 52%

Molecule: CNC(=O)c1cc(Oc2ccc(NC(=O)Nc3ccc(Cl)c(C(F)(F)F)c3)cc2)ccn1 [Sorafenib]
- % Control (PCSK9/LDLr PCA) (PCSK9/LDLR complex; dose 3 μM): 57%
- % Control (PCSK9/LDLr PCA) (PCSK9/LDLR complex; dose 10 μM): 58%
- % Control (Table 5, titled LDL uptake in Hepg2 cells) (HepG2 cells; dose 3 μM): 57%
- % Control (Table 5, titled LDL uptake in Hepg2 cells) (HepG2 cells; dose 10 μM): 58%

Molecule: COc1cc2ncnc(Nc3ccc(Oc4ccccc4)cc3)c2cc1OC [Src Kinase Inhibitor I, 4-(4-prime-Phenoxyanilino)-6,7-dimethoxyquinazoline]
- % Control (PCSK9/LDLr PCA) (PCSK9/LDLR complex; dose 12.5 μM): 50%
- effect on LDL uptake (in words) (HepG2 cells): dramatic increase in LDL uptake
- x-fold increase (LDL uptake in Hepg2 cells) (HepG2 cells; dose 3 μM): 2.3 x-fold
- x-fold increase (LDL uptake in Hepg2 cells) (HepG2 cells; dose 10 μM): 5.1 x-fold
- x-fold increase (hepatic LDL uptake) (HepG2 cells; dose 10 µM): 5.1 x-fold
- % Control (Table 5, titled LDL uptake in Hepg2 cells) (HepG2 cells; dose 12.5 μM): 50%
- x-fold increase (hepatic LDL uptake) (HepG2 cells; dose 3 µM): 2.3 x-fold

Molecule: COc1cc2c(Nc3ccc(Br)cc3F)ncnc2cc1OCC1CCN(C)CC1 [Vandetanib]
- % Control (PCSK9/LDLr PCA) (PCSK9/LDLR complex; dose 100 μM): 39%
- x-fold increase (LDL uptake in Hepg2 cells) (HepG2 cells; dose 1 μM): 1.5 x-fold
- x-fold increase (hepatic LDL uptake) (HepG2 cells; dose 1 µM): 1.5 x-fold
- x-fold increase (LDL uptake in Hepg2 cells) (HepG2 cells; dose 3 μM): 2.0 x-fold
- x-fold increase (hepatic LDL uptake) (HepG2 cells; dose 3 µM): 2.0 x-fold

Molecule: COC[C@H]1OC(=O)c2coc3c2[C@@]1(C)C1=C(C3=O)[C@@H]2CCC(=O)[C@@]2(C)C[C@H]1OC(C)=O [Wortmannin]
- % Control (PCSK9/LDLr PCA) (PCSK9/LDLR complex; dose 1.5 μM): 63%

Molecule: CO[C@H]1C[C@@H]2CC[C@@H](C)[C@@](O)(O2)C(=O)C(=O)N2CCCC[C@H]2C(=O)O[C@H]([C@H](C)C[C@@H]2CC[C@H](n3cnnn3)[C@H](OC)C2)CC(=O)[C@H](C)/C=C(\C)[C@@H](O)[C@@H](OC)C(=O)[C@H](C)C[C@H](C)/C=C/C=C/C=C/1C [Zotarolimus]
- % Control (PCSK9/LDLr PCA) (PCSK9/LDLR complex; dose 10 μM): 37%

Molecule: Indirubin-3′-Monoxime
- % Control (PCSK9/LDLr PCA) (PCSK9/LDLR complex; dose 10 μM): 64%
- % Control (Table 5, titled LDL uptake in Hepg2 cells) (HepG2 cells; dose 10 μM): 64%
